Source: the supplement of paper PMC13380429

Key:
Details in all cases: 72 h
[1] = system: Caco-2; experiment: relative viability EC50 (midpoint between 100% and the lowest measured viability); higher = less toxic
[2] = system: HepG2; experiment: as above
[3] = system: U2OS; experiment: as above
[4] = system: Calu-3; experiment: as above
[5] = system: Vero E6; experiment: as above
[6] = system: Caco-2; experiment: drug sensitivity score (DSS) for viability; higher = more toxic; extreme values may be limits of the assay
[7] = system: HepG2; experiment: as above
[8] = system: U2OS; experiment: as above
[9] = system: Calu-3; experiment: as above
[10] = system: Vero E6; experiment: as above
[11] = system: Caco-2; experiment: cell viability relative to DMSO; higher = less toxic
[12] = system: HepG2; experiment: as above
[13] = system: U2OS; experiment: as above
[14] = system: Calu-3; experiment: as above
[15] = system: Vero E6; experiment: as above

Structure (SMILES)	relative viability EC50 [1]	relative viability EC50 [2]	relative viability EC50 [3]	relative viability EC50 [4]	relative viability EC50 [5]	drug sensitivity score [6]	drug sensitivity score [7]	drug sensitivity score [8]	drug sensitivity score [9]	drug sensitivity score [10]	cell viability ([11]; 1 nM)	cell viability ([11]; 10 nM)	cell viability ([11]; 100 nM)	cell viability ([11]; 1000 nM)	cell viability ([11]; 10000 nM)	cell viability ([12]; 1 nM)	cell viability ([12]; 10 nM)	cell viability ([12]; 100 nM)	cell viability ([12]; 1000 nM)	cell viability ([12]; 10000 nM)	cell viability ([13]; 1 nM)	cell viability ([13]; 10 nM)	cell viability ([13]; 100 nM)	cell viability ([13]; 1000 nM)	cell viability ([13]; 10000 nM)	cell viability ([14]; 1 nM)	cell viability ([14]; 10 nM)	cell viability ([14]; 100 nM)	cell viability ([14]; 1000 nM)	cell viability ([14]; 10000 nM)	cell viability ([15]; 1 nM)	cell viability ([15]; 10 nM)	cell viability ([15]; 100 nM)	cell viability ([15]; 1000 nM)	cell viability ([15]; 10000 nM)
FC(F)(F)C(F)(F)C(F)(F)N(C(F)(F)C(F)(F)C(F)(F)F)C(F)(F)C(F)(F)C(F)(F)F [perfluamine]	> 10 µM	> 10 µM	> 10 µM	> 10 µM	> 10 µM	0	0	0	0	0	98%	96.8%	95%	88.6%	101%	101%	97.7%	92.2%	101%	93.7%	105%	97%	99.8%	97.1%	100%	103%	93.2%	99.7%	107%	98.3%	96.5%	97.9%	100%	103%	91.1%
CCCCCCCCCCCCCCCCOc1nc2ccc(C)cc2c(=O)o1 [cetilistat]	> 10 µM	> 10 µM	> 10 µM	> 10 µM	> 10 µM	0	0	0	0	0	94.8%	96.6%	89.8%	107%	96.7%	106%	94%	113%	99.9%	97.9%	93.7%	98.2%	93.5%	99.7%	103%	103%	107%	94.8%	100%	107%	99.8%	81.8%	98%	99.4%	105%
